In ChEMBL document CHEMBL4507300 (2021):

Tests used:
[1] = molecular target: Mitogen-activated protein kinase kinase kinase kinase 3 (Homo sapiens) (UniProt Q8IVH8); details: Compound concentration 1000.0 nM
[2] = molecular target: Serine/threonine-protein kinase PAK 1 (Homo sapiens) (UniProt Q13153); details: Compound concentration 1000.0 nM
[3] = molecular target: RAC-gamma serine/threonine-protein kinase (Homo sapiens) (UniProt Q9Y243); details: Compound concentration 1000.0 nM
[4] = molecular target: Megakaryocyte-associated tyrosine-protein kinase (Homo sapiens) (UniProt P42679); details: Compound concentration 1000.0 nM
[5] = molecular target: Serine/threonine-protein kinase 24 (Homo sapiens) (UniProt Q9Y6E0); details: Compound concentration 1000.0 nM
[6] = molecular target: Tyrosine-protein kinase ZAP-70 (Homo sapiens) (UniProt P43403); details: Compound concentration 1000.0 nM
[7] = molecular target: LIM domain kinase 2 (Homo sapiens) (UniProt P53671); details: Compound concentration 1000.0 nM
[8] = molecular target: Alpha-1D adrenergic receptor (Homo sapiens) (UniProt P25100); details: Compound concentration 10.0 uM
[9] = molecular target: Citron Rho-interacting kinase (Homo sapiens) (UniProt O14578); details: Compound concentration 1000.0 nM
[10] = molecular target: Mitogen-activated protein kinase 8 (Homo sapiens) (UniProt P45983); details: Compound concentration 1000.0 nM
[11] = molecular target: Ephrin type-A receptor 1 (Homo sapiens) (UniProt P21709); details: Compound concentration 1000.0 nM
[12] = molecular target: Dual specificity mitogen-activated protein kinase kinase 6 (Homo sapiens) (UniProt P52564); details: Compound concentration 1000.0 nM
[13] = molecular target: Activin receptor type-1-like (Homo sapiens) (UniProt P37023); details: Compound concentration 1000.0 nM
[14] = molecular target: SNF-related serine/threonine-protein kinase (Homo sapiens) (UniProt Q9NRH2); details: Compound concentration 1000.0 nM
[15] = molecular target: Mitogen-activated protein kinase kinase kinase kinase 5 (Homo sapiens) (UniProt Q9Y4K4); details: Compound concentration 1000.0 nM
[16] = molecular target: Inhibitor of nuclear factor kappa-B kinase subunit alpha (Homo sapiens) (UniProt O15111); details: Compound concentration 1000.0 nM
[17] = molecular target: Cyclin-dependent kinase 14 (Homo sapiens) (UniProt O94921); details: Compound concentration 1000.0 nM
[18] = molecular target: Delta-type opioid receptor (Homo sapiens) (UniProt P41143); details: Compound concentration 10.0 uM
[19] = system: Epidermal growth factor receptor (Homo sapiens), P00533 [L858R,T790M]; details: Compound concentration 1000.0 nM
[20] = molecular target: cAMP-dependent protein kinase catalytic subunit beta (Homo sapiens) (UniProt P22694); details: Compound concentration 1000.0 nM
[21] = molecular target: Serine/threonine-protein kinase PAK 5 (Homo sapiens) (UniProt Q9P286); details: Compound concentration 1000.0 nM
[22] = molecular target: TRAF2 and NCK-interacting protein kinase (Homo sapiens) (UniProt Q9UKE5); details: Compound concentration 1000.0 nM
[23] = molecular target: Protein kinase C iota type (Homo sapiens) (UniProt P41743); details: Compound concentration 1000.0 nM
[24] = molecular target: Serine/threonine-protein kinase 26 (Homo sapiens) (UniProt Q9P289); details: Compound concentration 1000.0 nM
[25] = molecular target: Serine/threonine-protein kinase MRCK alpha (Homo sapiens) (UniProt Q5VT25); details: Compound concentration 1000.0 nM
[26] = molecular target: Epithelial discoidin domain-containing receptor 1 (Homo sapiens) (UniProt Q08345); details: Compound concentration 1000.0 nM
[27] = molecular target: Phosphatidylinositol 4-phosphate 5-kinase type-1 alpha (Homo sapiens) (UniProt Q99755); details: Compound concentration 1000.0 nM
[28] = molecular target: D(2) dopamine receptor (Homo sapiens) (UniProt P14416); details: Compound concentration 10.0 uM
[29] = molecular target: Tyrosine-protein kinase HCK (Homo sapiens) (UniProt P08631); details: Compound concentration 1000.0 nM
[30] = molecular target: Serine/threonine-protein kinase SIK1 (Homo sapiens) (UniProt P57059); details: Compound concentration 1000.0 nM
[31] = molecular target: Serine/threonine-protein kinase pim-3 (Homo sapiens) (UniProt Q86V86); details: Compound concentration 1000.0 nM
[32] = molecular target: 5-hydroxytryptamine receptor 2B (Homo sapiens, UniProt P41595); details: Compound concentration 10.0 uM
[33] = molecular target: Cyclin-dependent kinase 9 (Homo sapiens) (UniProt P50750); details: Compound concentration 1000.0 nM
[34] = molecular target: Calcium/calmodulin-dependent protein kinase type 1 (Homo sapiens) (UniProt Q14012); details: Compound concentration 1000.0 nM
[35] = molecular target: 5-hydroxytryptamine receptor 1B (Homo sapiens) (UniProt P28222); details: Compound concentration 10.0 uM
[36] = molecular target: Ephrin type-A receptor 5 (Homo sapiens) (UniProt P54756); details: Compound concentration 1000.0 nM
[37] = molecular target: Ribosomal protein S6 kinase alpha-2 (Homo sapiens) (UniProt Q15349); details: Compound concentration 1000.0 nM
[38] = molecular target: MAP kinase-interacting serine/threonine-protein kinase 1 (Homo sapiens) (UniProt Q9BUB5); details: Compound concentration 1000.0 nM
[39] = system: Tyrosine-protein kinase ABL1 (Homo sapiens), P00519 [E255K]; details: Compound concentration 1000.0 nM
[40] = molecular target: Alpha-1A adrenergic receptor (Homo sapiens) (UniProt P35348); details: Compound concentration 10.0 uM
[41] = molecular target: Calcium/calmodulin-dependent protein kinase type II subunit alpha (Homo sapiens) (UniProt Q9UQM7); details: Compound concentration 1000.0 nM
[42] = molecular target: Dual specificity protein kinase CLK4 (Homo sapiens) (UniProt Q9HAZ1); details: Compound concentration 1000.0 nM
[43] = molecular target: Ephrin type-A receptor 2 (Homo sapiens) (UniProt P29317); details: Compound concentration 1000.0 nM
[44] = molecular target: Non-receptor tyrosine-protein kinase TYK2 (Homo sapiens) (UniProt P29597); details: Compound concentration 1000.0 nM
[45] = system: Epidermal growth factor receptor (Homo sapiens), P00533 [UNDEFINED MUTATION]; details: Compound concentration 1000.0 nM

Chain of Dual specificity mitogen-activated protein kinase kinase 6 (Homo sapiens) (P52564 whole entry): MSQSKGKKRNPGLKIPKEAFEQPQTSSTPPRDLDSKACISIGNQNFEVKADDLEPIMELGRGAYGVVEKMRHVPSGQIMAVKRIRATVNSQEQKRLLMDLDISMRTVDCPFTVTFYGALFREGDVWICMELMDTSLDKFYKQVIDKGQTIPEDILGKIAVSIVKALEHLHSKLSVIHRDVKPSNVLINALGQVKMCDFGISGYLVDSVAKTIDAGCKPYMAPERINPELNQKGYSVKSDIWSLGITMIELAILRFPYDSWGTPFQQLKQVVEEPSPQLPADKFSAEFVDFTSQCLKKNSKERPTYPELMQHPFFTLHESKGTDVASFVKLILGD
Chain of 5-hydroxytryptamine receptor 2B (P41595 whole entry): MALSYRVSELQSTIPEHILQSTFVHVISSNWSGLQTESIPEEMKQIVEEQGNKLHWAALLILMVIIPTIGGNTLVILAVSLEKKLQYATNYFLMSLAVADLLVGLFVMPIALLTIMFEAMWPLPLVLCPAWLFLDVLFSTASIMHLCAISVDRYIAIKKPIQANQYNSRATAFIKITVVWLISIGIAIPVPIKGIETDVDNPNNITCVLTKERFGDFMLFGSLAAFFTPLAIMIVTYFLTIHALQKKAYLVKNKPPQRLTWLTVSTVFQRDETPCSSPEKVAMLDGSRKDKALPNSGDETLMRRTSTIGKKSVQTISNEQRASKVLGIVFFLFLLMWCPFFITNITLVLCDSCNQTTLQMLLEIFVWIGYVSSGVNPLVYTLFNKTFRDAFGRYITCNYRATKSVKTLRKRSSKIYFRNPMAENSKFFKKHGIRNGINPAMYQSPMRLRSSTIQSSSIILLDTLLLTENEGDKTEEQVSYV
Chain of Phosphatidylinositol 4-phosphate 5-kinase type-1 alpha (Homo sapiens) (Q99755 whole entry): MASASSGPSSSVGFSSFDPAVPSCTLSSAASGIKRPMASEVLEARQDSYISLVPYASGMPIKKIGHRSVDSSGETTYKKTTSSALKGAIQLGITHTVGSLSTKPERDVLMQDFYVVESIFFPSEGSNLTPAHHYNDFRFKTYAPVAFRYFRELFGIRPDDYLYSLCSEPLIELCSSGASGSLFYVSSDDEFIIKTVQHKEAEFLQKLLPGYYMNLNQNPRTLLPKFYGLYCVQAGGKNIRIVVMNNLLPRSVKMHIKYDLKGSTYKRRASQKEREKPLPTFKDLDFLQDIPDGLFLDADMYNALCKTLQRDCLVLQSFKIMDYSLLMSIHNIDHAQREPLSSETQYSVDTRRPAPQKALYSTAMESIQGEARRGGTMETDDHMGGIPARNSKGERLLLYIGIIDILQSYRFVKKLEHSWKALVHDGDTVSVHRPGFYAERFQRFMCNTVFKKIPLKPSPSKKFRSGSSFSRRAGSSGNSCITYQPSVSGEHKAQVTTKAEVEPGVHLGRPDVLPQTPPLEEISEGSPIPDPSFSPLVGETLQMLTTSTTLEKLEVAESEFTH
Chain of Ribosomal protein S6 kinase alpha-2 (Homo sapiens) (Q15349 whole entry): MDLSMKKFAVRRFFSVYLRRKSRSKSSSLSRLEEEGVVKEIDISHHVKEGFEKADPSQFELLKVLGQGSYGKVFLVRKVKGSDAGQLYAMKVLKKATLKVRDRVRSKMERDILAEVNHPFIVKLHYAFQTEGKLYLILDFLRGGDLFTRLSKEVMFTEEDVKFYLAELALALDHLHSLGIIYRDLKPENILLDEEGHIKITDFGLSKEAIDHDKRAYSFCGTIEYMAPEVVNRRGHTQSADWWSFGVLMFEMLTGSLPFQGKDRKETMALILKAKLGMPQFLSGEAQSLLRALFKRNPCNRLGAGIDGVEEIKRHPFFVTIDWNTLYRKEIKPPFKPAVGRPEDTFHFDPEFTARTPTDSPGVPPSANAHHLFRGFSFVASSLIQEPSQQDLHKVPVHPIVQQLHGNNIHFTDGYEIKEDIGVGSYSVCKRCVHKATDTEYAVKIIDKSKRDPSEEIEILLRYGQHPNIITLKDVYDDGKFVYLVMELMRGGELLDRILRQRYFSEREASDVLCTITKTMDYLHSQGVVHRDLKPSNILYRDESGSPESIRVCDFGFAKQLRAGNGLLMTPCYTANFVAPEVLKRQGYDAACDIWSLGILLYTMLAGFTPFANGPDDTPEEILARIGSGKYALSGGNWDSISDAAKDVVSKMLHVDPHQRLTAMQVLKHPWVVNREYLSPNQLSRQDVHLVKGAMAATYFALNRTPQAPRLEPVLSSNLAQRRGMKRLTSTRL
Chain of Mitogen-activated protein kinase kinase kinase kinase 5 (Homo sapiens) (Q9Y4K4 whole entry, looked up): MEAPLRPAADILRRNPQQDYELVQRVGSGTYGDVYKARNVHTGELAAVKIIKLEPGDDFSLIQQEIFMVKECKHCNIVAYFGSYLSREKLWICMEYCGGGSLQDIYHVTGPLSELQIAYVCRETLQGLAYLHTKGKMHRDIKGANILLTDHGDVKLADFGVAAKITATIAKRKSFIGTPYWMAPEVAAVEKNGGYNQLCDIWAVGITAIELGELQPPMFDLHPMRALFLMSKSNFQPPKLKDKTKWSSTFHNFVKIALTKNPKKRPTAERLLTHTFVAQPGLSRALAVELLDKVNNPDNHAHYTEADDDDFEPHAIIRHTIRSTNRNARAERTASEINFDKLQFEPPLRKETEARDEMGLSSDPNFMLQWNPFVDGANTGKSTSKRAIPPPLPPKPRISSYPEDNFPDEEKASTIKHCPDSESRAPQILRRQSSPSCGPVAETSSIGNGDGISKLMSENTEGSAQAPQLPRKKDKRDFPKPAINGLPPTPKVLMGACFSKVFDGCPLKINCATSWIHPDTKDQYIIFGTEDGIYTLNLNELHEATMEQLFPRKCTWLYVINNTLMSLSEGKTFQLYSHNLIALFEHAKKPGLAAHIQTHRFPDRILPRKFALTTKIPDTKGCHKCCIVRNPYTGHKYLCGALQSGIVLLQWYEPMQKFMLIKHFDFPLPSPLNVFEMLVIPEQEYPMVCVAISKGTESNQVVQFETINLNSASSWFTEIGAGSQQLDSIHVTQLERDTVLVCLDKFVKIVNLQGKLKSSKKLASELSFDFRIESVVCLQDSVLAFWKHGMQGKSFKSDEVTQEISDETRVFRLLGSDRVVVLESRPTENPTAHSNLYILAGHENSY
Chain of RAC-gamma serine/threonine-protein kinase (Homo sapiens) (Q9Y243 whole entry): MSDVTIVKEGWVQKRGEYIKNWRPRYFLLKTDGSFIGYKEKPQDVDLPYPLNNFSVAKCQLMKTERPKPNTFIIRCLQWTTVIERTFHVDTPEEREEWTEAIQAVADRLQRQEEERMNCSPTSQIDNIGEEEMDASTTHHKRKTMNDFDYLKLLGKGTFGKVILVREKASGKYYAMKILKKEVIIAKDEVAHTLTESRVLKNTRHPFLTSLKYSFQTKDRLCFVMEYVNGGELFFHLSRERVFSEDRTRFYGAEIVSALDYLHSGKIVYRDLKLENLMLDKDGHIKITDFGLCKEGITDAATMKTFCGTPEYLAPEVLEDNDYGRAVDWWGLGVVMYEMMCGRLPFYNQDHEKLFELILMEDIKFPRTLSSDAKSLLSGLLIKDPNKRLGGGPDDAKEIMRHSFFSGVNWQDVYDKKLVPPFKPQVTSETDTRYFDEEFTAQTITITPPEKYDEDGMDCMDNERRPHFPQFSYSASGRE
Chain of TRAF2 and NCK-interacting protein kinase (Homo sapiens) (Q9UKE5 whole entry, looked up): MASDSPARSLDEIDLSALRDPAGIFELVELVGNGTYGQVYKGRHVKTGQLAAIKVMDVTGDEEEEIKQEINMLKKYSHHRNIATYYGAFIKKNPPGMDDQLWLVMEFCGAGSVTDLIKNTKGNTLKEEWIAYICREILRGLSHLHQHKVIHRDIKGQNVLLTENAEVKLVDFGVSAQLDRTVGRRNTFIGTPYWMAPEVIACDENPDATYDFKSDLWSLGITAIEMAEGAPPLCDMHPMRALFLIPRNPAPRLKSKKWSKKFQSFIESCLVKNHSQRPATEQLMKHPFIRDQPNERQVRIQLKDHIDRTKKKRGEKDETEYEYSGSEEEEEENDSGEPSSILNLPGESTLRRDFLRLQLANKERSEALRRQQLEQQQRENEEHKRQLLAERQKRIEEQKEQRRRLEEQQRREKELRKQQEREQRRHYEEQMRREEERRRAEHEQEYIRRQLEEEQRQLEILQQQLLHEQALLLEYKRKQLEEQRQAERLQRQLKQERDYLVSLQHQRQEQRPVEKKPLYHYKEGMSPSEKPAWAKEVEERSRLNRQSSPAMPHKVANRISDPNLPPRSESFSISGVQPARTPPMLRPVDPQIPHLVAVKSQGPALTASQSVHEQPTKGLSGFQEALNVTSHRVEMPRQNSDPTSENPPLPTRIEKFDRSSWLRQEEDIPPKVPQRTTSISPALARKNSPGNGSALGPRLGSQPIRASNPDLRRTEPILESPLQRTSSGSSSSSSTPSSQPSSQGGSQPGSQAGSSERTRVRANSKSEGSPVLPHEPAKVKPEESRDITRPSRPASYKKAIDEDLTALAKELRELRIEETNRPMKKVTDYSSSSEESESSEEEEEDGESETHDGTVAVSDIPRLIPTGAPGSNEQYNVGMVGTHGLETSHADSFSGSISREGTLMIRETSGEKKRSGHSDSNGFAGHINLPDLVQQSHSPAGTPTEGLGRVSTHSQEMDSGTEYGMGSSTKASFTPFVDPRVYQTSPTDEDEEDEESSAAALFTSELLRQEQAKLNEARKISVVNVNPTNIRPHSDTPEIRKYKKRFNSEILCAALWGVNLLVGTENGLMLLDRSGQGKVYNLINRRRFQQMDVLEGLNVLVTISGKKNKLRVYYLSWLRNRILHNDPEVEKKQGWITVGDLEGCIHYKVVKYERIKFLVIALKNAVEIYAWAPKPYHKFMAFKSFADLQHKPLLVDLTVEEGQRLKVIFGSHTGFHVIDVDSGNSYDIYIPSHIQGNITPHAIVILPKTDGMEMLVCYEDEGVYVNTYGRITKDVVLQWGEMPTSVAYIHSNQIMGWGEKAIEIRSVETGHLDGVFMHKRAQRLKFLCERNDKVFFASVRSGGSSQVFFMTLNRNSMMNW

COc1cccc(CNC(=O)c2nc3scc(COCc4ccc(C(=O)O)cc4)c3c(=O)[nH]2)c1 [T-26c]
inactive: residual activity [1] 99.8% | residual activity [2] 100% | residual activity [3] 84.8% | residual activity [4] 97.8% | residual activity [5] 100% | residual activity [6] 67.1% | residual activity [7] 96.2% | inhibition [8] -5.4% | residual activity [9] 100% | residual activity [10] 100% | residual activity [11] 79.9% | residual activity [12] 100% | residual activity [13] 100% | residual activity [14] 89.2% | residual activity [15] 87.3% | residual activity [16] 64.8% | residual activity [17] 100% | inhibition [18] -5.04% | residual activity [19] 58.6% | residual activity [20] 91.1% | residual activity [21] 87.4% | residual activity [22] 100% | residual activity [23] 100% | residual activity [24] 72.2% | residual activity [25] 100% | residual activity [26] 100% | residual activity [27] 100% | inhibition [28] 7.09% | residual activity [29] 79.7% | residual activity [30] 100% | residual activity [31] 100% | inhibition [32] -9.07% | residual activity [33] 78.6% | residual activity [34] 88.2% | inhibition [35] 15.9% | residual activity [36] 98.5% | residual activity [37] 100% | residual activity [38] 83.1% | residual activity [39] 83% | inhibition [40] -1.51% | residual activity [41] 92.5% | residual activity [42] 94.4% | residual activity [43] 100% | residual activity [44] 95% | residual activity [45] 66.1%
